# According to US20080287299A1, “Use of Imidazole and/or Triazole Derivatives for Combating Plant Pests; as Well as Method for Controlling Diseases/Insects/Mites/Nematodes and Weeds, Particularly Foliar and/or Soil Diseases” (priority 2005, published 2008):
# Columns and labels:
# Phakopsora pachyrhizi [1] = test: Greenhouse soybean rust test, plants at V6 stage, evaluated every 5 days; type: in vivo; conditions: for SEVERITY OF RUST (% IFA) 5 DAT / SEVERITY OF RUST (% IFA) 10 DAT / SEVERITY OF RUST (% IFA) 20 DAT: soybeans
# Source text: Recent tests carried out in greenhouses the laboratory of FMC Quimica do Brasil Ltda. in Uberaba, MG, Brazil, show the highly fungicidal effect of said specific imidazole and/or triazole derivatives in combating diseases of plants, particularly against the attack by the fungus Phakopsora pachyrhizi on soybeans, as described hereinafter. […]
# Equipment: a manual sprayer commonly used in agriculture with 2-liter capacity.
# Dosages: 50 to 500 grams per hectare of the active compound Fluconazole per liter diluted in water.
# Evaluations of the Effectiveness of the Product: The evaluations were made every 5 days after application of the product, in a total of 4 evaluations. As an evaluation parameter one utilized the severity of the disease (percentage of foliar area attacked by rust) according to the diagrammatic scale of the EMBRAPA (FIG. 1). […]
# Dosages: 50 to 500 grams per hectare of the active compound Itraconazole per liter diluted in water.
# Phakopsora pachyrhizi [2] = test: Field evaluation of fungicides for control of soybean asian rust, Rondonópolis, MT, Brazil; type: in vivo
# Experimental: Results of the 2nd step with defined crops (Evaluation of efficiency of fungicides for controlling soybean asian rust caused by Phakopsora pachyrhizi in the State of Mato Grosso, Brazil)
# Several fungicides were evaluated in the control of soybean asian rust (Table 1A). The experiment was effected in Rondonópolis, MT, Brazil, harvest 2005/06, in a commercial area with soybean cultivar. The experiment consisted of 13 treatments (Table 1A).
# The experimental outlining was random, in blocks, with 13 treatments and 4 repetitions. Each plot consisted of 6 lines of 6 m, spaced 0.45 m.
# The culture traits were suited to the good development of the soybean crop, uniformly applied in the whole experiment.
# The spraying was effected in stadiums R3 and R5.1, with coast CO2 sprayer provided with a JA-02-type beak, under a pressure of 0.31 MPa (45 psi), using 110 L of broth per ha. At the first application, the plants were presenting the beginning of rust symptoms at their foliar areas.
# The rust was evaluated by analysing the percentage of foliar area affected by the disease, according to Godoy et al., in the plants of the three central lines. Evaluationa related to soybean injury and severity were effected in 14 and 21 days after the first application (DDA), by means of visual observation of the leaves of the plot plants.
smiles,measurement,setting,value
"CC(=O)N1CCN(c2ccc(OC[C@H]3CO[C@](Cn4ccnc4)(c4ccc(Cl)cc4Cl)O3)cc2)CC1 (relative stereo) [Ketoconazole, cis-1-acetyl-4-(4-((2-(2,4-dichloro-phenyl)-2-(1H-imidazol-1-ylmethyl)-1,3-dioxolan-4-yl)methoxyl)phenyl)piperazine]",SEVERITY OF RUST (% IFA) 5 DAT,Phakopsora pachyrhizi [1]; 100 g ac/ha,27 % IFA
same,SEVERITY OF RUST (% IFA) 10 DAT,Phakopsora pachyrhizi [1]; 100 g ac/ha,20 % IFA
same,SEVERITY OF RUST (% IFA) 20 DAT,Phakopsora pachyrhizi [1]; 100 g ac/ha,45 % IFA
same,SEVERITY OF RUST (% IFA) 5 DAT,Phakopsora pachyrhizi [1]; 200 g ac/ha,10 % IFA
same,SEVERITY OF RUST (% IFA) 10 DAT,Phakopsora pachyrhizi [1]; 200 g ac/ha,8 % IFA
same,SEVERITY OF RUST (% IFA) 20 DAT,Phakopsora pachyrhizi [1]; 200 g ac/ha,18 % IFA
same,SEVERITY OF RUST (% IFA) 5 DAT,Phakopsora pachyrhizi [1]; 300 g ac/ha,10 % IFA
same,SEVERITY OF RUST (% IFA) 10 DAT,Phakopsora pachyrhizi [1]; 300 g ac/ha,6 % IFA
same,SEVERITY OF RUST (% IFA) 20 DAT,Phakopsora pachyrhizi [1]; 300 g ac/ha,16 % IFA
same,SEVERITY OF RUST (% IFA) 5 DAT,Phakopsora pachyrhizi [1]; 400 g ac/ha,11 % IFA
same,SEVERITY OF RUST (% IFA) 10 DAT,Phakopsora pachyrhizi [1]; 400 g ac/ha,7 % IFA
same,SEVERITY OF RUST (% IFA) 20 DAT,Phakopsora pachyrhizi [1]; 400 g ac/ha,15 % IFA
same,SEVERITY OF RUST (% IFA) 5 DAT,Phakopsora pachyrhizi [1]; 500 g ac/ha,8 % IFA
same,SEVERITY OF RUST (% IFA) 10 DAT,Phakopsora pachyrhizi [1]; 500 g ac/ha,4 % IFA
same,SEVERITY OF RUST (% IFA) 20 DAT,Phakopsora pachyrhizi [1]; 500 g ac/ha,11 % IFA
same,effectiveness for controlling soybean rust,Phakopsora pachyrhizi [1]; from the dose of 200 grams of active ingredients per hectare,imparts effectiveness for controlling soybean rust
same,Severity - affected foliar area (%) 14 DAA,"Phakopsora pachyrhizi [2]; Dose 1000 P.C. mL ha^−1, 14 days after the first application",2.0%
same,Severity - affected foliar area (%) 21 DAA,"Phakopsora pachyrhizi [2]; Dose 1000 P.C. mL ha^−1, 21 days after the first application",7.0%
